Laboratory results reported in ChEMBL document CHEMBL1151183, “New pigments from the terrestrial cyanobacterium Scytonema sp. collected on the Mitaraka inselberg, French Guyana” (J Nat Prod, 2004).
Activity calls are given as the source filed them.

Key:
[1] = tested on: Candida tropicalis; assay: Antimicrobial activity against Candida tropicalis IP 209.73 at 1 uM; format: functional, organism-based
[2] = tested on: KB; assay: Cytotoxicity against human KB cells at 0.1 uM; format: functional, cell-based
[3] = tested on: Escherichia coli; assay: Antimicrobial activity against Escherichia coli ATCC 8739 at 1 uM; format: functional, organism-based
[4] = tested on: Staphylococcus aureus; assay: Antimicrobial activity against Staphylococcus aureus ATCC 6538 at 1 uM; format: functional, organism-based

Measured: Activity

COC(c1ccc(O)cc1)C1(OC)C(=O)/C(=C2/C(=O)/C(=C/c3ccc(O)cc3)c3[nH]c4ccccc4c32)c2c1[nH]c1ccccc21 (configuration not stated)
inactive: [1] | [2] Not toxic | [3] | [4]

COC(=O)C1=C(c2c(/C(=C\c3ccc(O)cc3)C(=O)OC)[nH]c3ccccc23)C(=O)c2[nH]c3ccccc3c21
inactive: [1] | [2] Not toxic | [3] | [4]

COC(c1ccc(O)cc1)C1(OC)C(=O)/C(=C2/C(=O)C(OC)(C(OC)c3ccc(O)cc3)c3[nH]c4ccccc4c32)c2c1[nH]c1ccccc21 (configuration not stated)
inactive: [1] | [2] Not toxic | [3] | [4]
